Data reported in patent publication EP4650362A1, “NEUROPROTECTIVE PSD-95 POLYPEPTIDE INHIBITOR AND USE THEREOF” (Beijing Tuo Jie Biopharmaceutical Co. Ltd., priority 2023, dated 2024).
Where “and” joins values, the source holds several entries; their conditions need not be identical. Identical values can stand only once. Like-named read-outs stand apart in the source and are kept apart here. Non-standard residues stand in square brackets, D forms with d. Residues, ends and D or L forms follow the SMILES beside them. No end group written: not given here. Tle = CC(C)(C)[C@H](N)C(=O)O; Dab = NCC[C@H](N)C(=O)O; Aib = CC(C)(N)C(=O)O

Legend:
human PSD95-PDZ2 = target: T1, human PSD95-PDZ2 (Homo sapiens, UniProt P78352); assay: competitive ELISA, affinity for human PSD95-PDZ2; assay type: binding
T1 construct: PDZ2 (155-249, the Flag-His-Avitag-TEVsite tag is italicized); made in house; host or cells: E. coli BL21-DE3 (PET vector)
Text: The objective of this test example was to determine the affinities of polypeptide compounds for human PSD95-PDZ2 using competitive ELISAs.
The amino acid sequence of PDZ2 protein was designed using human PSD95 (Uniprot Entry: P78352) as a template for PDZ: PDZ2 (155-249, the Flag-His-Avitag-TEVsite tag is italicized and was subsequently used for purification and biotinylation): […]
[…] (SEQ ID NO. 62). The PDZ2 gene was constructed onto a PET expression vector, and induced expression was performed using BL21-DE3 E. coli cells under conditions of 37 °C and 1 mM IPTG 4 h. Then centrifugation was performed at 10,000 g at 4 °C for 10 min, and the cell pellets were collected, resuspended in 1× PBS solution, and then lysed using a homogenizer. The lysate was centrifuged at high speed, and the supernatant was collected and filtered through a 0.45 µm membrane. A Ni-Sepharose affinity column was equilibrated with 5 column volumes of a 20 mM phosphate buffer (pH 8.0). The sample was centrifuged at high speed to remove impurities and loaded onto the column for binding. The column was rinsed with the 20 mM phosphate buffer until the A280 reading dropped to the baseline. Gradient elution was then performed with the 20 mM phosphate buffer and 0-500 mM imidazole. A protein was collected, and whether it was the target protein was determined. The purified sample described above was buffer-exchanged into 1× PBS solution, and the resulting solution was concentrated to a volume of 2 mL and further purified using a Superdex200 gel chromatography column (GE) equilibrated with 1× PBS. The target peak was collected and aliquoted for later use.
PSD95-PDZ2 (the tag was removed by TEV enzyme) was diluted with 1× PBS buffer to 1 µg/mL, added to a 96-well microplate (Corning, 9018, 25/box 96-well clear flat bottom plate) at 100 µL/well, and left to stand overnight at 4 °C for 16-20 h. After the liquid was discarded, the plate was washed three times with PBST (pH 7.4, 0.05% Tween-20) buffer, and a 4% BSA blocking solution diluted with PBST buffer was then added (300 µL/well). The plate was blocked by incubation in an incubator at 37 °C for 1 h. After the blocking was complete, the blocking solution was discarded, and the plate was washed three times with PBST buffer. Biotin-NA-1, at a constant concentration of 0.3 µM, and the test compounds, having a starting concentration of 100 µM and serially diluted ten-fold with PBS buffer to seven concentrations (100, 10, 1, 0.1, 0.01, 0.001, 0.0001, and 0 µM), were then added, and the plate was incubated in an incubator at 37 °C for 1 h. After the incubation was complete, the reaction solutions in the microplate were discarded, and the plate was washed three times with PBST. 100 µL of HRP-SA secondary antibody (diluted at 1:2000) was added to each well, and the plate was incubated at 37 °C for 1 h. After the plate was washed three times with PBST, 100 µL of TMB chromogenic substrate was added. The plate was incubated at room temperature for 1-3 min, and 100 µL of 1 M sulfuric acid was added to stop the reaction.
The absorbance at 450 nm was measured using a SpectraMax M5 microplate reader, and non-linear fitting was performed using GraphPad Prism 9 to calculate the binding IC50 values of the test compounds to PSD95-PDZ2 protein.

human PSD95-PDZ3 = target: T2, human PSD95-PDZ3 (Homo sapiens, UniProt P78352); assay: binding ELISA with Biotin-PDZ3
T2 construct: PDZ3 (309-401, Flag-His-Avitag-TEVsite tag); made in house
T2 sequence (P78352 309-401): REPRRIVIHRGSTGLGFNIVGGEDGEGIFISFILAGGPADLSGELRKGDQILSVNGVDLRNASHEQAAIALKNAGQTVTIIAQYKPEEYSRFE
Text: The three PDZ domains in the PSD95 protein are structurally similar. Binding to the PDZ1 and PDZ2 domains can effectively block PSD95-mediated neuroexcitotoxicity. However, the biological function of binding to the PDZ3 domain is unclear. Therefore, to avoid potential safety concerns, this test example assessed the selectivity of polypeptide compounds for the PDZ2 and PDZ3 domains, aiming to identify polypeptide compounds that specifically bind to the PDZ2 domain. The expression and purification of PSD95-PDZ3 protein were carried out with reference to the steps in 3.1.2. The amino acid sequence of PDZ3 protein: […] Site-specifically biotinylated Biotin-PDZ2 and Biotin-PDZ3 proteins were used for binding ELISA assays. […] After the blocking was complete, the blocking solution was discarded, and the plate was washed three times with PBST buffer. […] After the incubation was complete, the reaction solutions in the microplate were discarded, and the plate was washed three times with PBST. 100 μL of HRP-SA secondary antibody (diluted at 1:2000) was added to each well, and the plate was incubated at 37 °C for 1 h. After the plate was washed three times with PBST, 100 μL of TMB chromogenic substrate was added. […] The absorbance at 450 nm was measured using a SpectraMax M5 microplate reader, and the binding EC50 values of the test compounds to Biotin-PDZ2 or Biotin-PDZ3 were calculated using GraphPad Prism 9. […] The abilities of polypeptide compounds to bind to human PSD95-PDZ2 and human PSD95-PDZ3

[1] = plasma stability test with alteplase added, rat plasma; assay type: in vitro ADME; details: Rat plasma + rt-PA (50 µg/mL alteplase), 25 µM
Protocol: Solution preparation: An appropriate amount of a test polypeptide compound was weighed out and dissolved in an appropriate amount of 1× PBS to form a 1 mM test solution. NA-1 and NoNO42 were used as positive drugs, propantheline bromide was used as a human plasma test control, and lovastatin was used as a rat plasma test control. Plasma stability test: 12.5 µL of the 1 mM test solution was added to a 495 µL pre-incubated plasma sample. […] For each incubation time, two parallel samples were set. Subsequently, 200 µL of stop solution was added to stop the incubation, and the mixtures were vortexed for 5 min. Then the mixtures were centrifuged at 10,000 rpm at 4 °C for 10 min to remove the protein in the sample, and 70 µL of the supernatant was transferred to a new 96-well plate (70 µL of water was added to each well beforehand) and well mixed. Plasma stability test with alteplase added: An appropriate amount of solid alteplase was weighed out, and an appropriate volume of water was added. The mixture was vortexed to dissolve alteplase, forming a 1 mg/mL solution of alteplase. 250 µL of the 1 mg/mL solution of alteplase was added to 4750 µL of plasma to form a plasma sample containing 50 µg/mL alteplase. The other procedures were the same as in the aforementioned "plasma stability test", with the difference being that the plasma sample containing 50 µg/mL alteplase was used instead of plasma. […] Sample pretreatment: […] LC-MS analysis: […] (2) Mass-spectrometric conditions: The mass spectrometry analysis used an electrospray ionization (ESI) source, a positive ion analysis mode, and a multi-reaction monitoring (MRM) scan mode. […] The plasma stability of the polypeptide compound

[2] = competitive ELISA against 0.3 µM Biotin-NA-1, error of this test within three times, read-out: IC50

CC[C@H](C)[C@H](NC(=O)[C@H](CO)NC(=O)[C@H](CO)NC(=O)[C@H](CC(C)C)NC(=O)[C@@H](CCCCN)NC(=O)[C@H](CCCNC(=N)N)NC(=O)[C@H](CCCNC(=N)N)NC(=O)[C@@H](CCCNC(=N)N)NC(=O)[C@H](CCC(N)=O)NC(=O)[C@@H](CCCNC(=N)N)NC(=O)[C@H](CCCNC(=N)N)NC(=O)[C@H](CCCCN)NC(=O)[C@H](CCCCN)NC(=O)[C@@H](CCCNC(=N)N)NC(=O)CNC(=O)[C@@H](N)Cc1ccc(O)cc1)C(=O)N[C@@H](CCC(=O)O)C(=O)N[C@@H](CO)C(=O)N[C@@H](CC(=O)O)C(=O)N[C@H](C(=O)O)C(C)C [NoNO42, YGrKKRrQrRRkLSSIESDV, reference compound] (H-YG[dR]KKR[dR]Q[dR]RR[dK]LSSIESDV-OH)
IC50 (human PSD95-PDZ2): 0.917 µM | EC50 (human PSD95-PDZ3): > 1000 µM

CC(C)[C@H](NC(=O)[C@H](CC(=O)O)NC(=O)[C@@H](NC(=O)[C@@H](NC(=O)[C@@H](NC(=O)[C@@H](NC(=O)[C@H](CCN)NC(=O)C(C)(C)NC(=O)CNC(=O)[C@@H](CCCNC(=N)N)NC(=O)[C@@H](CCCNC(=N)N)NC(=O)[C@@H](CCCNC(=N)N)NC(=O)[C@@H](CCC(N)=O)NC(=O)[C@@H](CCCNC(=N)N)NC(=O)[C@@H](CCCNC(=N)N)NC(=O)[C@@H](CCCCN)NC(=O)[C@@H](CCCCN)NC(=O)[C@@H](CCCNC(=N)N)NC(=O)CNC(=O)[C@H](N)Cc1ccc(O)cc1)[C@@H](C)O)C(C)(C)C)C(C)(C)C)[C@@H](C)O)C(=O)O [Polypeptide compound 14, y-G-r-k-k-r-r-q-r-r-r-G-Aib-Dab-T-Tle-Tle-T-D-V] (H-[dY]G[dR][dK][dK][dR][dR][dQ][dR][dR][dR]G[Aib][Dab]T[Tle][Tle]TDV-OH)
IC50 (human PSD95-PDZ2; [2]): 0.713 µM | EC50 (human PSD95-PDZ3; plate coated with 2 µM test compound, Biotin-PDZ3 titrated, read-out: EC50 (PDZ3)): > 1000 µM | Relative remaining compound content (%) ([1]; 0min (standard 100%)): 100.0% | Relative remaining compound content (%) ([1]; 10min): 95.6% | Relative remaining compound content (%) ([1]; 20min): 90.4% | Relative remaining compound content (%) ([1]; 30min): 104.9% | Relative remaining compound content (%) ([1]; 60min): 105.4% | Relative remaining compound content (%) ([1]; 120min): 96.7%

CC(C)[C@H](NC(=O)[C@H](CC(=O)O)NC(=O)[C@@H](NC(=O)[C@@H](NC(=O)[C@@H](NC(=O)[C@@H](NC(=O)[C@H](CCN)NC(=O)C(C)(C)NC(=O)CNC(=O)[C@@H](CCCNC(=N)N)NC(=O)[C@H](CCCNC(=N)N)NC(=O)[C@H](CCCNC(=N)N)NC(=O)[C@H](CCC(N)=O)NC(=O)[C@@H](CCCNC(=N)N)NC(=O)[C@H](CCCNC(=N)N)NC(=O)[C@H](CCCCN)NC(=O)[C@H](CCCCN)NC(=O)[C@H](N)CCCNC(=N)N)[C@@H](C)O)C(C)(C)C)C(C)(C)C)[C@@H](C)O)C(=O)O [Polypeptide compound 22, r-K-K-R-r-Q-R-R-r-G-Aib-Dab-T-Tle-Tle-T-D-V] (H-[dR]KKR[dR]QRR[dR]G[Aib][Dab]T[Tle][Tle]TDV-OH)
IC50 (human PSD95-PDZ2; [2]): 0.881 µM | Relative remaining compound content (%) ([1]; 0min (standard 100%)): 100.0% | Relative remaining compound content (%) ([1]; 10min): 83.4% | Relative remaining compound content (%) ([1]; 20min): 72.2% | Relative remaining compound content (%) ([1]; 30min): 48.2% | Relative remaining compound content (%) ([1]; 60min): 13.7% | Relative remaining compound content (%) ([1]; 120min): 8.1%

YGRKKRRQRRRKLSSIESDV [NA-1, YGRKKRRQR RRKLSSIESDV, reference compound]
IC50 (human PSD95-PDZ2): 0.909 µM | EC50 (human PSD95-PDZ3): > 1000 µM | Relative remaining compound content (%) ([1]; 0min (standard 100%)): 100.0% | Relative remaining compound content (%) ([1]; 10min): 6.3% and 14.0% | Relative remaining compound content (%) ([1]; 20min): 2.2% | Relative remaining compound content (%) ([1]; 30min): 0.8%
